# From ChEMBL document CHEMBL1287680, “C-11 diamino cryptolepine derivatives NSC748392, NSC748393, and NSC748394: anticancer profile and G-quadruplex stabilization” (Bioorg Med Chem Lett, 2010)
# Experiments:
# Vero = experiment: cells; conditions: Chlorocebus sabaeus, 48 h
# Description: Cytotoxicity against african green monkey Vero cells after 48 hrs by MTT assay
# Description for physchem: Dissociation constant, pKa of the compound by UV-visible spectroscopy
structure (smiles),measurement,setting,value
C[n+]1c2ccccc2c(NCCCN2CCCCC2)c2[nH]c3ccccc3c21,IC50,Vero,2 µM
same,pKa,physchem,11.7
C[n+]1c2ccccc2c(Nc2cccnc2)c2[nH]c3ccccc3c21,IC50,Vero,2.6 µM
same,pKa,physchem,10.3
CN(C)CCNc1c2ccccc2[n+](C)c2c1[nH]c1ccccc12,IC50,Vero,5.5 µM
same,pKa,physchem,11.6
C[n+]1c2ccccc2c(NC2CCN(Cc3ccccc3O)CC2)c2[nH]c3ccccc3c21,IC50,Vero,2.6 µM
same,pKa,physchem,11.6
CCN(CC)CCCNc1c2ccc(Cl)cc2[n+](C)c2c1[nH]c1ccccc12,IC50,Vero,1.3 µM
same,pKa,physchem,11.2
C[n+]1c2ccccc2c(Nc2ccccc2)c2[nH]c3ccccc3c21,IC50,Vero,0.6 µM
same,pKa,physchem,10.6
C[n+]1c2cc(Cl)ccc2c(NC2CCNCC2)c2[nH]c3ccccc3c21,IC50,Vero,4.4 µM
same,pKa,physchem,11.1
CC(C)CN1CCC(Nc2c3ccccc3[n+](C)c3c2[nH]c2ccccc23)CC1,IC50,Vero,5 µM
same,pKa,physchem,11.6
CCN(CC)CCNc1c2ccccc2[n+](C)c2c1[nH]c1ccccc12,IC50,Vero,2.8 µM
same,pKa,physchem,11.6
CCN(CC)Cc1ccc(Nc2c3ccccc3[n+](C)c3c2[nH]c2ccccc23)cc1O,IC50,Vero,0.8 µM
same,pKa,physchem,10.8
CN(C)CC(C)(C)CNc1c2ccccc2[n+](C)c2c1[nH]c1ccccc12,IC50,Vero,3 µM
same,pKa,physchem,11.7
CCN(CC)c1c2ccccc2[n+](C)c2c1[nH]c1ccccc12,IC50,Vero,3 µM
CN(C)CCCNc1c2ccccc2[n+](C)c2c1[nH]c1ccccc12,IC50,Vero,2.2 µM
same,pKa,physchem,11.9
CC(CN(C)C)Nc1c2ccccc2[n+](C)c2c1[nH]c1ccccc12 (configuration not stated),IC50,Vero,3 µM
same,pKa,physchem,11.6
C[n+]1c2ccccc2c(NC2CCN(Cc3ccccc3)CC2)c2[nH]c3ccccc3c21,IC50,Vero,2.2 µM
same,pKa,physchem,11.5
CCN(CC)CCCC(C)Nc1c2ccccc2[n+](C)c2c1[nH]c1ccccc12 (configuration not stated),IC50,Vero,13 µM
same,pKa,physchem,11.4
C[n+]1c2cc(Cl)ccc2c(NC2CCNCC2)c2[nH]c3cc(Cl)ccc3c21,IC50,Vero,0.8 µM
same,pKa,physchem,10.3
CCN(CC)CCCNc1c2ccccc2[n+](C)c2c1[nH]c1ccccc12,IC50,Vero,2.5 µM
same,pKa,physchem,11.6
CC(C)NCCCNc1c2ccccc2[n+](C)c2c1[nH]c1ccccc12,IC50,Vero,3 µM
same,pKa,physchem,11.5
